pIC50: −log10 of the molar value. Like-named read-outs stand apart in the source and are kept apart here.
Columns and labels:
[1] = system: cortical axons collapses triggered by Sema3A; experiment: Cortical axons collapses triggered by Sema3A in neocortex explants; type: cell-based, mouse; details: Sema3A 100 ng/ml, peptide 10^−8 to 10^−11 M, 2 h, read-out: IC50, inhibition of cortical axons collapses induced by Sema3A
Protocol: The inhibitory axon growth property of Sema 3A is supposed to be linked to its induction capacity of growth cone collapses. To investigate the effect of the pTM-NRP1 peptide on the Sema 3A functional properties, the growth of cortical neurons was analyzed in the presence or not of Sema 3A and of pTM-NRP1 or pTM-NRP1^mut (NRP1 TM with a triple G→V mutation) peptides.
Laminine/Poly-L-Lysine substrates have been made by adding 980 μL of Gey's balanced salt solution (GBSS, SIGMA) to 10 μL laminine (1 mg/ml, SIGMA) and to 10 μL poly-L-Lysine (10 mg/ml, SIGMA). Sterile coverslips have been placed in a big dish and added with substrate (100 μL). Then, ‘sandwiches’ have been prepared by covering each coverslip with a second one. After an incubation for at least 30 min at 37° C. under 5% CO2 in air, ‘sandwiches’ have been opened and each coverslip has been rinsed with deionized water. Explants have been cultured on dried coverslips.
Neocortex fragments prepared from E15 mouse embryos (E1 determined as the first day of embryonic development by detection of vaginal plug) have been transferred on a tissue chopper disk. Tissue have been cut into 200×200 μm by rotating the disk by 90° after the first cut. Cortex cubes have been collected with a spatula and put into culture medium in a Petri dish. Two coverslips with substrate have been placed in a small Petri dish (50 mm diameter, FALCON). After adding 750 μl of culture medium, the coverslips should stay in the incubator for at least 10 minutes. Using a dissecting microscope, forty to fifty cortical explants have been collected in 20 μl culture medium and carefully placed onto the coverslips. After 15 min at room temperature, most explants have adhered to their substrate. 2250 μl of culture medium have been slowly added to each dish. Then, explants cultures have been kept at 37° C. under 5% CO2 in air.
A radial outgrowth could be seen after 18-24 h in culture, and individual fibres and growth cones could have therefore been analyzed. Products tested on growth cones have been directly added in culture medium for 2 h: • purified Sema3A (100 ng/ml) prepared from conditioned medium of HEK293 cells stably expressing Sema3A. The purification was performed by using the anti-Flag system, SIGMA) • pTM-NRP1 (10^−8, 10^−9, 10^−10 and 10^−11 M), • 10^−8M mpTM-NRP1, • 10^−8M pTM-ErbB2w (SEQ ID NO. 18).
After incubation, 4% formaldehyde has been directly added in culture medium (v/v) for 15min. Then the solution has been removed and replaced by 4% formaldehyde for 15 min.

PC12 cells = experiment: PC12 cell differentiation / neuritic outgrowth assay; type: cell-based; details: peptide 10^−9 M
Protocol: To further investigate the biochemical consequence of the TM-NRP1 in terms of receptor complex formation, we analyzed the formation of complexes in the PC12 neuronal cells model.
PC12 (ATCC: CRL-1721) were grown in D-MEM medium with 4.5 g of glucose/L (GIBCO), 5% FVS, 10% horse serum, glutamine 580 mg/L and antibiotics. For functional assays, PC12 were cultured on 12-wells plates with previously poly-L-lysine-coated glass coverslips. PC12 cells were incubated 1 h with or without pTM-NRP1 peptide (10^−9M) at 37° C. Culture medium was removed and replaced by NGF-containing (100 ng/mL; GIBCO) serum free medium or by conditioned medium obtained from HEK293 cells stably expressing Sema3A or non-transfected cells (control, see BAGNARD et al., 1998 for details) for 12 h at 37° C.
Cells were fixed with 2% formaldehyde for 30 mn followed by 15 mn in 4% formaldehyde. For each condition tested, around 400 cells were analyzed to evaluate neuritic outgrowth (Statistical analyses were made by using χ^2 test).

[2] = system: VEGF165 signalling in C6 cells; experiment: VEGF165-induced migration of C6 tumour cell aggregates in 3D matrix (plasma clot); type: cell-based; details: VEGF165 50 ng/ml, peptide 10^−8 M
Protocol: NRP1 is a receptor of VEGF (NEUFELD et al., Adv. Exp. Med. Biol., vol. 515, p: 81-90, 2002). We therefore verified that pTM-NRP1 can antagonize VEGF signalling in C6 cells. To this end, C6 tumour cell aggregates prepared as previously described (see BAGNARD et al., 1998; and NASARRE et al., Neoplasia, vol. 7, p: 180-189, 2005) were grown in the 3D matrix (plasma clot) and treated with VEGF165.

ILITIIAMSALGVLLGAVCGVVL [pTM-NRP1]
pIC50 ([1]; listed as peptide corresponding to the transmembrane domain of NRP1): > 11.00
pIC50 [1]: ~11.00
NGF effect on PC12 cell differentiation (PC12 cells; NGF 100 ng/mL 12 h): preserved
Sema3A induced neurite growth promotion (PC12 cells; Sema3A conditioned medium 12 h): significantly reduced
VEGF165-dependent C6 cells migration out of aggregates [2]: suppressed
